According to patent publication US20160038532A1, “Treatment of Multiple Sclerosis With Combination of Laquinimod and Glatiramer Acetate” (TEVA PHARMACEUTICAL INDUSTRIES, LTD., priority 2011, published 2016):
Read-outs that look alike come from different tables or passages of the source. Marks after values point to notes of the source that are not given here.

How the values were obtained:
[1] = Weight of EAE mice (Example 2.1); format: in vivo, C57B1/6 mice
From the text: FIG. 1 is a graphical representation of the experimental results from Example 2.1.
The differences were statistically significant (by MANOVA). […] However, when the first signs appeared the mice started to lose weight. On days 16 and 24 the weight of control mice was statistically different from almost all the others (Table 4, FIG. 1B).

[2] = test system: relapsing remitting (RR) EAE; assay: Relapsing remitting EAE in Biozzi mice, combination study (Example 2.6); format: in vivo; parameters: MMS value / IMS value: scale not given here; settings: for inhibition at 5 mg/kg / inhibition at 12.5 mg/kg / inhibition at 25 mg/kg: Mus musculus, 1416 h
Method: EAE is an animal model for multiple sclerosis. In the Biozzi AB/H EAE mice, a RR EAE can be induced. […] Re-injection of an encephalitogen can induce a chronic relapsing disease that enables measuring long-term effects on subsequent relapses rather than immediate effects.
The EAE induction was performed according to procedure “RR-EAE.Biozzi” The Biozzi mice were weighed and injected subcutaneously and re-injected one week later with encephalitogenic agent (MSCH emulsion). 0.3 mL of the encephalitogenic agent containing 1.0 mg of MSCH and 200.0 μg of MT was injected subcutaneously, at two sites in the right flank of each mouse (0.15 mL at each site). The second injection was done in a similar manner in the left flank, one week later.
On the day of first injection of encephalotigen, the Biozzi mice were randomly allocated to eight treatment groups as follows: Tables 16-17.
The 5.0 mg/mL laquinimod stock solution was diluted 1:5 to yield 1 mg/mL.
The mice in all the groups were administered daily by oral gavage a volume dose level of […] of the respective test formulations from the day the mice are allocated to the treatment groups (first injection of encephalitogen) for 59 consecutive days until the termination of the study.
The mice were examined and scored according to the following table, until the termination of the study (60 days after initiation of treatment).
The activity of the test articles for the first and second phase of RR EAE was calculated by comparing the incidence of disease, mortality, onset and duration of disease, group mean score and mean maximal score to the control group. Calculations were carried separately and together for the first and the second relapse.

[3] = laquinimod 5 mg/kg/day, alone or + GA-blocking
[4] = laquinimod 25 mg/kg/day, alone or + GA-blocking
[5] = first and second attacks together, laquinimod 5.0 mg/kg oral daily 59 d, alone or + GA 12.5 mg/kg oral
[6] = first and second attacks together, laquinimod 12.5 mg/kg oral daily 59 d
[7] = first and second attacks together, laquinimod 25.0 mg/kg oral daily 59 d, alone or + GA 12.5 mg/kg oral
[8] = first attack, LAQ 5.0 mg/kg oral daily, alone or + GA 12.5 mg/kg oral
[9] = first attack, LAQ 12.5 mg/kg oral daily
[10] = first attack, LAQ 25.0 mg/kg oral daily, alone or + GA 12.5 mg/kg oral
[11] = second attack, LAQ 5.0 mg/kg oral daily, alone or + GA 12.5 mg/kg oral
[12] = second attack, LAQ 12.5 mg/kg oral daily
[13] = second attack, LAQ 25.0 mg/kg oral daily, alone or + GA 12.5 mg/kg oral
[14] = first and second attacks together, GA 12.5 mg/kg oral daily 59 d
[15] = first attack, GA 12.5 mg/kg oral daily
[16] = second attack, GA 12.5 mg/kg oral daily

## CCN(C(=O)c1c(O)c2c(Cl)cccc2n(C)c1=O)c1ccccc1 [laquinimod]
[1]; [3]
  weight, day 5 after induction: 17.5
  weight, day 10 after induction: 18.5
  weight, day 16 after induction: 18.6
  weight, day 24 after induction: 16.5
  weight, day 30 after induction: 16.0
[1]; [4]
  weight, day 5 after induction: 17.8
  weight, day 10 after induction: 18.9
  weight, day 16 after induction: 19.1*
  weight, day 24 after induction: 17.5
  weight, day 30 after induction: 17.6
[2]; first and second attacks together, laquinimod 5.0 mg/kg oral daily 59 d, alone or + GA 12.5 mg/kg oral, read-out: GMS % inhibition
  inhibition at 5 mg/kg: 21.7%
[2]; first and second attacks together, laquinimod 5.0 mg/kg oral daily 59 d, alone or + GA 12.5 mg/kg oral, read-out: Incidence % inhibition
  inhibition at 5 mg/kg: 23.1%
[2]; first and second attacks together, laquinimod 5.0 mg/kg oral daily 59 d, alone or + GA 12.5 mg/kg oral, read-out: MMS % inhibition
  inhibition at 5 mg/kg: 16.2%
[2]; first and second attacks together, laquinimod 12.5 mg/kg oral daily 59 d, read-out: GMS % inhibition
  inhibition at 12.5 mg/kg: 43.5%
[2]; first and second attacks together, laquinimod 12.5 mg/kg oral daily 59 d, read-out: Incidence % inhibition
  inhibition at 12.5 mg/kg: 23.1%
[2]; first and second attacks together, laquinimod 12.5 mg/kg oral daily 59 d, read-out: MMS % inhibition
  inhibition at 12.5 mg/kg: 22.2%
[2]; first and second attacks together, laquinimod 25.0 mg/kg oral daily 59 d, alone or + GA 12.5 mg/kg oral, read-out: GMS % inhibition
  inhibition at 25 mg/kg: 30.4%
[2]; first and second attacks together, laquinimod 25.0 mg/kg oral daily 59 d, alone or + GA 12.5 mg/kg oral, read-out: Incidence % inhibition
  inhibition at 25 mg/kg: 30.8%
[2]; first and second attacks together, laquinimod 25.0 mg/kg oral daily 59 d, alone or + GA 12.5 mg/kg oral, read-out: MMS % inhibition
  inhibition at 25 mg/kg: 27.8%
[2]; [5]
  GMS value: 1.8
  Incidence: 10/14
  MMS value: 3.1
  Mean Duration: 26.5 ± 17.0 days
  Mortality: 0/14
[2]; [6]
  GMS value: 1.3
  Incidence: 10/14
  MMS value: 2.8
  Mean Duration: 17.5 ± 14.0 days
  Mortality: 0/14
[2]; [7]
  GMS value: 1.6
  Incidence: 9/14
  MMS value: 2.6
  Mean Duration: 23.0 ± 16.4 days
  Mortality: 0/14
[2]; [8]
  IMS value: 42.9 ± 29.8
  Incidence: 10/14
  MMS % Inhibition 2: 19.4%
  MMS value: 2.9 ± 1.9
  Mean Duration: 15.4 ± 10.9 days
  Mortality: 0/14
[2]; first attack, LAQ 5.0 mg/kg oral daily, alone or + GA 12.5 mg/kg oral, listed as LAQ
  IMS % Inhibition 3: 15.6%
[2]; [9]
  IMS % Inhibition 3: 53.3%
  IMS value: 32.4 ± 24.9
  Incidence: 10/14
  MMS % Inhibition 2: 25.0%
  MMS value: 2.7 ± 1.9
  Mean Duration: 9.6 ± 8.6 days
  Mortality: 0/14
[2]; [10]
  IMS % Inhibition 3: 42.8%
  IMS value: 39.7 ± 32.3
  Incidence: 9/14
  MMS value: 2.6 ± 2.0
  Mean Duration: 13.9 ± 10.0 days
  Mortality: 0/14
[2]; [11]
  % Inhibition 1 (incidence): 1.8%
  IMS % Inhibition 3: 18.4%
  IMS value: 38.6 ± 28.5
  Incidence: 10/14
  MMS % Inhibition 2: 3.4%
  MMS value: 2.8 ± 1.8
  Mean Duration: 11.4 ± 11.5 days
  Mortality: 0/14
[2]; [12]
  % Inhibition 1 (incidence): 11.6%
  IMS % Inhibition 3: 41.4%
  IMS value: 27.7 ± 23.1
  Incidence: 9/14
  MMS % Inhibition 2: 13.8%
  MMS value: 2.5 ± 2.0
  Mean Duration: 7.9 ± 6.5 days
  Mortality: 0/14
[2]; [13]
  % Inhibition 1 (incidence): 21.5%
  IMS % Inhibition 3: 29.2%
  IMS value: 33.5 ± 32.2
  Incidence: 8/14
  MMS % Inhibition 2: 20.7%
  MMS value: 2.3 ± 2.1
  Mean Duration: 9.1 ± 8.6 days
  Mortality: 0/14

## L-glutamic acid polymer with L-alanine, L-lysine and L-tyrosine, acetate (salt) [GA]
[1]; GA-blocking alone
  weight, day 5 after induction: 17.9
  weight, day 10 after induction: 19.3
  weight, day 16 after induction: 19.9**
  weight, day 24 after induction: 18.0*
  weight, day 30 after induction: 18.2
[2]; [14]
  GMS % inhibition: 21.7%
  GMS value: 1.8
  Incidence: 12/14
  Incidence % inhibition: 7.7%
  MMS % inhibition: 0.0%
  MMS value: 3.6
  Mean Duration: 23.8 ± 16.2 days
[2]; [15]
  % Inhibition 1 (incidence): 7.7%
  IMS % Inhibition 3: 15.6%
  IMS value: 58.6 ± 70.5
  Incidence: 12/14
  MMS % Inhibition 2: 2.8%
  MMS value: 3.5 ± 1.6
  Mean Duration: 15.7 ± 14.0 days
[2]; [16]
  % Inhibition 1 (incidence): 31.2%
  IMS % Inhibition 3: 35.5%
  IMS value: 30.5 ± 33.0
  Incidence: 6/12
  MMS % Inhibition 2: 31.0%
  MMS value: 2.0 ± 1.7
  Mean Duration: 9.4 ± 10.5 days
